Publication PMC4879574, “Identification of Leishmania donovani Topoisomerase 1 inhibitors via intuitive scaffold hopping and bioisosteric modification of known Top 1 inhibitors” (Scientific Reports, 2016)

What was measured:
Human Top1 (HTop1) = target: T1, Human Top1 (HTop1) (Homo sapiens, UniProt P11387); assay: Plasmid DNA relaxation assay, HTop1; assay type: biochemical; details: averages of three experiments, read-out: HTop1 inhibition (EC50)
T1 construct: made in house; host or cells: Sf-9 insect cells infected with recombinant baculovirus (gift from Prof. J. J. Champoux)
T1 sequence (P11387 1-765): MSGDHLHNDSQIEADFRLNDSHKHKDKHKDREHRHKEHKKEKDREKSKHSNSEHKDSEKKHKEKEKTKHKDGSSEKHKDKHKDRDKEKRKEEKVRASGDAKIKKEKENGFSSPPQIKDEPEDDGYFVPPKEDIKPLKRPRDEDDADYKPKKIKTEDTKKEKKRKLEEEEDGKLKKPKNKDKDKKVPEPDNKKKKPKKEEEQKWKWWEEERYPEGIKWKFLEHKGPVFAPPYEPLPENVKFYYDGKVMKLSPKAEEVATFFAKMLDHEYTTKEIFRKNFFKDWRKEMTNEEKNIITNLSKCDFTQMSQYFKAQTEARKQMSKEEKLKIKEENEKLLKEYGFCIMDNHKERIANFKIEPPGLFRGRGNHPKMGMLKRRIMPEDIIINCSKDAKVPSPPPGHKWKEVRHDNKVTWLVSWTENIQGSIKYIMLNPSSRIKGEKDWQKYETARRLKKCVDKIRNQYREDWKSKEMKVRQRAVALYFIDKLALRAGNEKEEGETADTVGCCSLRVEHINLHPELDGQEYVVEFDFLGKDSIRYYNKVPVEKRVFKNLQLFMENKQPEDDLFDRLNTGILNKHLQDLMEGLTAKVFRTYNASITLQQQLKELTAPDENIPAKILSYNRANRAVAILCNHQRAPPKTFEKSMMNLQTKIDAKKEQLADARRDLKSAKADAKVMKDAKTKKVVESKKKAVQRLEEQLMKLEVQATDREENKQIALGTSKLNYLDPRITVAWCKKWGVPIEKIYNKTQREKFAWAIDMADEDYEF
Description: To investigate the inhibitory effect of our library compounds on the DNA relaxation activity of the recombinant Human and Leishmania topoisomerase 1 (Table 2), assays were performed involving supercoiled plasmid DNA, the enzymes (HTop1 and LdTop1) and our molecules. The enzymes were purified by the standard literature procedure.
The type I DNA topoisomerase are assayed by decreased mobility of the relaxed isomers of supercoiled pBS (SK^+) [pBlue-script (SK^+)] DNA in agarose gel. The relaxation assay was carried out as described previously with LdTop1B and HTop I, diluted in the relaxation buffer (25 mM Tris–HCl, pH 7.5, 5% glycerol, 0.5 mM DTT, 10 mM MgCl2, 50 mM KCl, […] and […] BSA) and supercoiled plasmid pBS (SK^+) DNA (85–95% were negatively supercoiled, with remainder being nicked circles)[9][28][29]. The reconstituted enzyme LdTop1B was assayed at 50 mM KCl concentration as described before. For all kinetic studies, the reaction mixtures containing the buffer and DNA were heated to 37 °C before addition of the enzymes. The reactions were rapidly quenched using stop solution and kept on ice. The gels were stained with ethidium bromide (EtBr) ([…]) and the amount of supercoiled monomer DNA band fluorescence were quantified by integration using Gel Doc 2000 under UV illumination (Bio-Rad Quantity One Software), as described previously.
The wild-type HTop1 (91 kDa) was purified from Sf-9 insect cells infected with the recombinant baculovirus (a kind gift from Prof. J. J. Champoux). Approximately, 1 * 10^9 Sf-9 cells were infected with the recombinant virus, and cells were harvested after 48-h of infection. The cells were lysed and enzyme was purified as described. Briefly, at 48 h post-infection, approximately 3 * 10^9 Sf-9 cells were harvested by centrifugation for 5 min at 400 * g. The cells were resuspended in 1 liter of ice-cold phosphate-buffered saline and centrifuged for 5 min at 400 * g. The nuclei were washed twice in 80 ml of lysis buffer minus Triton X-100 and resuspended in 40 ml of resuspension buffer (50 mM KCl, 10 mM Tris-Cl, pH 7.5, 2 mM MgCl2, 25 mM DTT, 0.4 mg/ml phenylmethylsulfonyl fluoride, 0.12 mg/ml aprotinin). The nuclear extract was stirred for 5 min at ~200 rpm. With continued stirring, 50 ml of polyethylene glycol (PEG) buffer (18% PEG 8000, 1 M NaCl, 10% glycerol) was added dropwise in order to precipitate the DNA. The PEG precipitate was pelleted by centrifugation and the resulting PEG supernatant was dialyzed against 4 liters of potassium phosphate buffer. The dialyzed PEG supernatant passed over a 10-ml bed volume of phosphocellulose (Whatman P11) equilibrated with PPB. The HTop1 flowed through the PS column and then passed over a Mono Q column followed by loaded onto a Mono S column. The Mono S column was eluted with a 25-ml 50–200 mM KPO4, pH 7.4, gradient. […] The peak Mono S fractions were pooled, concentrated with an Amicon ultrafiltration cell, dialyzed into storage buffer (50% glycerol, 10 mM Tris-hydrochloride, pH 7.5, 1 mM DTT, 1 mM EDTA), and stored at −20 °C.

[1] = system: L. donovani AG83 promastigotes; assay: MTT assay on extracellular promastigotes; assay type: cell-based; details: Leishmania donovani, 12 h, read-out: Anti-promastigote activity IC50
Description: Next, compound 4 was screened against extracellular promastigotes.
L. donovani AG83 promastigotes (3.0 × 10^6 cells/ml) are incubated with different concentrations of drugs/compounds under study (1, 2, 5, 10 and 20 μM) for 12 h, following which the survival percentage is estimated by MTT assay. Yellow MTT (3-(4,5-dimethylthiazol- 2-yl)-2,5-diphenyltetrazolium bromide, a tetrazole) is reduced to purple formazan in the mitochondria of living cells. The formazan is then solubilized, and the concentration is determined by optical density at 570 nm. Metabolically active cells convert MTT to formazan, thereby generating a quantitative measure of viability and cytotoxicity. Percentage of viable promastigotes in each treatment groups are determined with respect to untreated control cells.

[2] = Cytotoxicity on mammalian COS7 cell lines; assay type: cell-based; details: African green monkey, COS7 cells
COS7 cells = assay: Cytotoxicity on mammalian COS7 cell lines; assay type: cell-based

SMILES: Cc1cc2c(c(=O)[nH]1)C(=O)O/C2=C\c1ccc(O)c(O)c1 [Compound 4]
- EC50 (Human Top1 (HTop1)): > 100 µM
- IC50 [1]: 4.21 ± 0.21 µM
- CC50 [2]: 390.6 ± 3.15 µM
- Selectivity Index (SI) (COS7 cells; CC50 against COS7/IC50 against promastigote): ~100
- Cytotoxicity against COS7 (COS7 cells; COS7): no cytotoxicity
